Measurements published in the NIST ThermoML archive (doi:10.1016/j.jct.2017.07.011).

Experiment: xn = mol fraction of the nth substance listed
Conditions: 100 kPa, Liquid, Vibrating tube method

CCC(O)CC [3-pentanol] + O
mass density [kg/m3]
Conditions	x1 = 0.00117	x1 = 0.00216	x1 = 0.00361	x1 = 0.00517	x1 = 0.00616	x1 = 0.00773	x1 = 0.00866	x1 = 1
273.65 K	999.121	998.483	997.636	996.791	996.228	995.539	995.114	835.7
274.15 K	999.145	998.504	997.655	996.809	996.243	995.55	995.121	835.3
274.65 K	999.166	998.525	997.681	996.827	996.257	995.562	995.131	834.9
275.15 K	999.182	998.545	997.694	996.837	996.27	995.568	995.137	834.5
275.65 K	999.2	998.559	997.704	996.842	996.271	995.572	995.134	834.1
276.15 K	999.21	998.568	997.714	996.849	996.277	995.571	995.134	833.7
276.65 K	999.216	998.574	997.718	996.852	996.271	995.565	995.128	833.3
277.15 K	999.214	998.574	997.712	996.843	996.263	995.555	995.116	832.9
277.65 K	999.21	998.562	997.704	996.832	996.251	995.537	995.092	832.5
278.15 K	999.206	998.556	997.698	996.822	996.238	995.523	995.08	832.1
278.65 K	999.194	998.549	997.686	996.805	996.219	995.503	995.05	831.7
279.15 K	999.182	998.533	997.668	996.789	996.197	995.475	995.023	831.3
279.65 K	999.159	998.5	997.635	996.752	996.159	995.434	994.98	830.9
280.15 K	999.14	998.48	997.609	996.729	996.134	995.406	994.948	830.5
280.65 K	999.119	998.457	997.582	996.698	996.103	995.368	994.912	830.1
281.15 K	999.084	998.424	997.551	996.663	996.061	995.327	994.867	829.7
281.65 K	999.053	998.388	997.515	996.619	996.024	995.286	994.819	829.3
282.15 K	999.017	998.353	997.476	996.581	995.981	995.24	994.77	828.9

CCCC(C)O (stereo not given) [pentan-2-ol] + O
mass density [kg/m3]
Conditions	x1 = 0.00105	x1 = 0.0021	x1 = 0.00413	x1 = 0.00599	x1 = 0.00677	x1 = 0.00857	x1 = 1
273.65 K	999.095	998.354	997.02	995.922	995.484	994.604	824
274.15 K	999.119	998.377	997.038	995.939	995.499	994.61	823.6
274.65 K	999.148	998.4	997.057	995.957	995.51	994.622	823.2
275.15 K	999.16	998.416	997.073	995.965	995.523	994.625	822.8
275.65 K	999.177	998.43	997.08	995.972	995.524	994.627	822.5
276.15 K	999.187	998.44	997.09	995.972	995.527	994.622	822.1
276.65 K	999.193	998.445	997.092	995.974	995.524	994.619	821.7
277.15 K	999.185	998.444	997.082	995.964	995.512	994.604	821.3
277.65 K	999.19	998.439	997.076	995.952	995.498	994.583	820.9
278.15 K	999.187	998.426	997.066	995.938	995.484	994.566	820.6
278.65 K	999.177	998.416	997.053	995.923	995.466	994.542	820.2
279.15 K	999.163	998.401	997.037	995.898	995.439	994.519	819.8
279.65 K	999.133	998.376	997.002	995.867	995.403	994.471	819.4
280.15 K	999.115	998.36	996.978	995.84	995.375	994.439	819.1
280.65 K	999.09	998.332	996.951	995.806	995.342	994.408	818.7
281.15 K	999.058	998.301	996.915	995.769	995.301	994.365	818.3
281.65 K	999.025	998.267	996.878	995.731	995.261	994.318	817.9
282.15 K	998.992	998.234	996.841	995.688	995.214	994.273	817.5
